In ChEMBL document CHEMBL1133708, “A new class of conformationally rigid analogues of 4-amino-5-halopentanoic acids, potent inactivators of gamma-aminobutyric acid aminotransferase” (J Med Chem, 2000):

Key:
[1] = target: T1, 4-aminobutyrate aminotransferase, mitochondrial (Sus scrofa, UniProt P80147); assay: Compound was evaluated for the competitive inhibition of Gamma-amino-N-butyrate transaminase
[2] = target: 4-aminobutyrate aminotransferase, mitochondrial (Sus scrofa) (UniProt P80147); assay: Compound was evaluated for the kinetic constant for the inhibition of Gamma-amino-N-butyrate transaminase; NA means no inactivation
Sequence of 4-aminobutyrate aminotransferase, mitochondrial (Sus scrofa) (P80147 whole entry): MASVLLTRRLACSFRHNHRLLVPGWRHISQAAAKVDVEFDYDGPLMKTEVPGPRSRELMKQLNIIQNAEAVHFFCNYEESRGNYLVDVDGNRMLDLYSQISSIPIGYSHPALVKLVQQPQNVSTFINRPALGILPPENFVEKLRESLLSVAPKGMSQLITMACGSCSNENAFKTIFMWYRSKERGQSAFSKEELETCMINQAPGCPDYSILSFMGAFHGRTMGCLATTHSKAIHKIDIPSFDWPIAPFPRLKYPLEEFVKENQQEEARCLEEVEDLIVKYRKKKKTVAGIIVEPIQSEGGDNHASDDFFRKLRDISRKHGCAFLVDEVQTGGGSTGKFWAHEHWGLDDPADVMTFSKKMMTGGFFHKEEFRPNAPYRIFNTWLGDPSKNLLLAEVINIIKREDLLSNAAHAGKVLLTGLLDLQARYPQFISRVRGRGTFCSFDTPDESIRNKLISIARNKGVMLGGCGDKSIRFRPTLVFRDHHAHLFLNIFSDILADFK

[3] = target: T1, 4-aminobutyrate aminotransferase, mitochondrial; assay: Compound was evaluated for the kinetic constant for the inhibition of Gamma-amino-N-butyrate transaminase
[4] = target: 4-aminobutyrate aminotransferase, mitochondrial (Sus scrofa) (UniProt P80147); assay: Compound was evaluated for the kinetic constant for the inactivation of Gamma-amino-N-butyrate transaminase
[5] = Selectivity ratio of Kinact/KI

T1 sequence (P80147 whole entry): as above

In the case of `N[C@H]1[C@H](Br)[C@@H](C(=O)O)C[C@@H]1F`, the Ki [1] is reported as 4.7 mM and the NA [2] is reported as “No inactivation”.
In the case of `N[C@H]1[C@H](O)[C@@H](C(=O)O)C[C@@H]1Br`, the Ki [1] is reported as 5.9 mM and the NA [2] is reported as “No inactivation”.
In the case of `N[C@H]1C[C@@H](C(=O)O)C[C@@H]1F`, the Ki [3] is reported as 0.43 mM, the Ki [1] is reported as 0.012 mM and the kinact [4] is reported as 0.03 min⁻¹. It also gave a K inact/Ki [5] of 1.17 M⁻¹ s⁻¹.
In the case of `N[C@H]1[C@H](Br)[C@@H](C(=O)O)C[C@@H]1Br`, the Ki [3] is reported as 49 mM, the Ki [1] is reported as 4.2 mM and the kinact [4] is reported as 0.18 min⁻¹. For the same compound, the K inact/Ki [5] was 0.0617 M⁻¹ s⁻¹.
In the case of `N[C@H]1C[C@@H](C(=O)O)CC1(F)F`, the NA [2] is reported as “No inactivation”.
With `N[C@@H]1CC[C@H](C(=O)O)[C@H]1Br` the Ki [1] was 12 mM and the NA [2] was “No inactivation”.
For `N[C@H]1[C@H](Br)[C@@H](C(=O)O)C[C@@H]1O`, the Ki [1] was 13 mM and the NA [2] was “No inactivation”.
Work on `N[C@H]1C[C@@H](C(=O)O)C[C@@H]1Br` yielded a Ki [3] of 16 mM, a Ki [1] of 3.6 mM and a kinact [4] of 0.02 min⁻¹. For the same compound, the K inact/Ki [5] was 0.0217 M⁻¹ s⁻¹.
Work on `NC(CF)CCC(=O)O` (configuration not stated) yielded a Ki [3] of 0.4 mM and a kinact [4] of 0.5 min⁻¹.
Compound `N[C@H]1[C@@H](F)[C@@H](C(=O)O)C[C@@H]1Br` has a Ki [3] of 3.14 mM, a Ki [1] of 1.6 mM and a kinact [4] of 0.023 min⁻¹. The K inact/Ki [5] was 0.122 M⁻¹ s⁻¹.
